These are literature values, as cited in patent US20120070506A1, “Animal Treatment” (BOMAC RESEARCH LIMITED, priority 2009, published 2012).

This data set has as its system animals. Conditions: veterinary treatment.

For the compound `CC(C(=O)O)c1ccc2c(c1)[nH]c1ccc(Cl)cc12` (stereo not drawn) [carprofen, 6-chloro-alpha-methyl-9H-carbozole-2-acetic acid], the known adverse effect entry is given as “hepatotoxicity (acute hepatic necrosis) or other liver damage”.
